These results are taken from US20190328869A1, “IMMUNOTHERAPEUTIC PRODUCT AND MDSC MODULATOR COMBINATION THERAPY” (Transgene SA, priority 2016, published 2019).

For this test, the system named is HBV-Core-specific and HBV-Polymerase-specific T cells producing IFNγ. Briefly: IFNγ-ELISpot, HBV-specific T cell responses (Full pool Core, VSA, N13F) in HBV-persistent mice. As to conditions: splenocytes, day 76; cutoff 50 spots/10^6 cells; sildenafil 20 mg/kg/day D31-59 or D48-76. Type of test: in vivo, C57BL/6J mice. As to the method: The capacity of splenocytes to produce IFNγ after different in vitro stimulations was measured by an IFNγ-ELISpot assay at day 76 post AAV2/8-HBV injection. HBV-specific responses were assessed using the HBV-Core peptides (A, Full pool Core), -polymerase specific peptide VSA (B) or N13F (C). Results are shown as the number of spots per 10^6 splenocytes. Each dot represents an individual mouse and thick line represents mean values for each group (+/−SEM). The horizontal gray line represents the technical cutoff value (50 spots/10^6 cells) above which values are considered as positive T cell responses. For groups with a positive T cell response, incidence of mice per group is indicated on the graph.
The capacity of splenocytes to produce IFNγ after different in vitro stimulations was measured by an IFNγ-ELISpot assay at day 76 post AAV2/8-HBV injection. HBV-specific responses were assessed using the HBV-Core peptides (Full pool Core), -polymerase specific peptide VSA or N13F. Shown are mean values of responder mice (>50 spots/10^6 cells) (mean, SEM). […]
The HBV persistent mice used in the study were described by Dion et al. (2013, J Virol, 87(10):5554-63). […] This allows the analysis of HBV-specific viral parameters (HBsAg, HBeAg, HBcAg and viremia) as well as immunological read-outs (ICS, ELISpot or humoral immune responses). […]

As for `CCCc1nn(C)c2c(=O)nc(-c3cc(S(=O)(=O)N4CCN(C)CC4)ccc3OCC)[nH]c12` [sildenafil, 1-[[3-(4,7-dihydro-1-methyl-7-oxo-3-propyl-1H-pyrazolo[4,3-d]pyrimidin-5-yl)-4-ethoxyphenyl]sulfonyl]-4-methylpiperazine], the “HBV-specific IFNg producing T responses (Full pool core, VSA, N13F)” value was “did not show any IFNg producing T responses”.
